Reference: patent US8912359B2, “Bisbenzamidines for the treatment of pneumonia” (University of Cincinnati, priority 2003, dated 2014)
≈ marks a conversion by molar mass, not a printed value. Like-named read-outs stand apart in the source and are kept apart here.

What was measured:
Pneumocystis = Pneumocystis ATP detection assay; format: cell-based, P. carinii; settings: for IC50: concentration reducing ATP content of Pneumocystis populations by 50% vs untreated controls, 48 hours exposure (Table 1 title); for Anti-Pneumocystis Activity: semi-qualitative scale from highly active to no activity, based on IC50
From the text: An ATP assay system (Cushion, Chen et al., 1997; Chen & Cushion, 1994; Collins & Cushion, 2001) was used to evaluate bisbenzamidine analogues as potential therapeutic targets for treatment of pneumonia, particularly that caused by species in the genus Pneumocystis. […]. Development of these compounds could provide new and novel treatment choices for Pneumocystis pneumonia.
A series of novel bisbenzamidines linked by either a rigid (for instance, a phenylene diamide) or a flexible (for instance, a propyl diamide) core are described. Such compounds may be used for the treatment of infections, such as pneumonia and for instance, pneumonia caused by Pneumocystis.
The structure-activity relationships for the piperazine-linked bisbenzamidines and the toxicities of each compound in three different mammalian cell lines are shown in the following tables. Compounds are ranked in order of the lowest concentration necessary to reduce the ATP content of Pneumocystis populations by 50% (i.e., the IC50) compared to untreated control populations. Note that the IC50 values are expressed on a microgram per milliliter and micromolar basis. […];

Calf thymus DNA = experiment: DNA Binding ΔTm, calf thymus
Poly (dA-dT) = experiment: DNA Binding ΔTm, Poly (dA-dT)
[1] = tested on: A549 lung epithelial cells
From the text: (§1) Two transformed cell lines derived from two different organ systems and a primary cell line were chosen for evaluation of the relative toxicity of each compound. […] The Hep-G2 cell line is an epithelial cell line derived from a human hepatocellular carcinoma, and WI-38 is a human diploid cell line derived from normal embryonic (3 months of gestation) lung tissue.

WI-38 = experiment: toxicity to WI-38 cell line (ATP system)
From the text: as §1

DNA Binding ΔTm Poly (dA-dT) (Poly (dA-dT)) [°C] | Compound | IC50 (Pneumocystis) [µg/mL] | Anti-Pneumocystis Activity (Pneumocystis) | DNA Binding ΔTm Calf thymus (Calf thymus DNA) [°C] | toxicity in A549 line [1] | toxicity in WI-38 line (WI-38) | toxicity in A549 line ([1]; human) | Anti-Pneumocystis Activity (Pneumocystis; listed as —C2H5)
22.5 | CCCCCNC(=N)c1ccc(N2CCN(c3ccc(C(=N)NCCCCC)cc3)CC2)cc1 [compound 2, 4,4′-(1,4-piperazinediyl)bis(N-pentylbenzenecarboximidamide)] | – | Highly Active | 16.9 | – | – | – | –
10.1 | CCCCCCNC(=N)c1ccc(N2CCN(c3ccc(C(=N)NCCCCCC)cc3)CC2)cc1 [compound 3, 4,4′-(1,4-piperazinediyl)bis(N-hexylbenzenecarboximidamide)] | – | Highly Active | 10.7 | – | – | – | –
8.5 | CCCCCCCNC(=N)c1ccc(N2CCN(c3ccc(C(=N)NCCCCCCC)cc3)CC2)cc1 [compound 5, 4,4′-(1,4-piperazinediyl)bis(N-heptylbenzenecarboximidamide)] | – | Very Marked | 8.7 | without toxicity | without toxicity | – | –
18.6 | CCNC(=N)c1ccc(N2CCN(c3ccc(C(=N)NCC)cc3)CC2)cc1 [compound 16, 4,4′-(1,4-piperazinediyl)bis(N-ethylbenzenecarboximidamide)] | 0.542 (≈ 1.43 µM) | marked | 15.3 | – | – | – | Marked

More lines, now with the values behind:

Compound | DNA Binding ΔTm Poly (dA-dT) (Poly (dA-dT)) [°C] | IC50 (Pneumocystis) [µg/mL] | Anti-Pneumocystis Activity (Pneumocystis) | DNA Binding ΔTm Calf thymus (Calf thymus DNA) [°C] | toxicity in A549 line [1] | toxicity in WI-38 line (WI-38) | toxicity in A549 line ([1]; human) | Anti-Pneumocystis Activity (Pneumocystis; listed as —C2H5)
N=C(N)c1ccc(OCCCCCOc2ccc(C(=N)N)cc2)cc1 [Pentamidine, reference compound] | 20.6 | 0.3 (≈ 0.881 µM) | marked | 11.1 | – | – | – | –
CCCCCCCCNC(=N)c1ccc(N2CCN(c3ccc(C(=N)NCCCCCCCC)cc3)CC2)cc1 [compound 11, 4,4′-(1,4-piperazinediyl)bis(N-octylbenzenecarboximidamide)] | – | – | Marked | 4.2 | – | – | – | –
CCCCCCCCCNC(=N)c1ccc(N2CCN(c3ccc(C(=N)NCCCCCCCCC)cc3)CC2)cc1 [compound 14, 4,4′-(1,4-piperazinediyl)bis(N-nonylbenzenecarboximidamide)] | 2.7 | – | Marked | 1.3 | – | – | – | –
CCCCCCCCCCCCNC(=N)c1ccc(N2CCN(c3ccc(C(=N)NCCCCCCCCCCCC)cc3)CC2)cc1 [compound 15, 4,4′-(1,4-piperazinediyl)bis(N-dodecylbenzenecarboximidamide)] | 0.0 | – | Marked | 0.6 | – | – | not the A549 line | –
CCCCCCCCCCNC(=N)c1ccc(N2CCN(c3ccc(C(=N)NCCCCCCCCCC)cc3)CC2)cc1 [compound 18, 4,4′-(1,4-piperazinediyl)bis(N-decylbenzenecarboximidamide)] | – | – | Marked | 1.3 | – | – | – | –
